# Patent EP2801573A1, “Hydantoine derivatives as CD38 inhibitors” (SANOFI, priority 2013, dated 2014)
# Experiments:
# [1] = target: T1, natural cell surface human CD38 enzyme (Homo sapiens, UniProt P28907); experiment: Cell surface enzyme assay on A549 cells; assay type: cell-based; settings: A549 human lung epithelial cells, pre-incubated 15 min, ε-NAD 100 µM, 60 min, pH=7.4
# T1 construct: The A549 cells express active CD38 enzyme on the cell surface; endogenous in cells; host or cells: A549 human lung epithelial cells (ATCC CCL 185)
# T1 sequence (P28907 1-300): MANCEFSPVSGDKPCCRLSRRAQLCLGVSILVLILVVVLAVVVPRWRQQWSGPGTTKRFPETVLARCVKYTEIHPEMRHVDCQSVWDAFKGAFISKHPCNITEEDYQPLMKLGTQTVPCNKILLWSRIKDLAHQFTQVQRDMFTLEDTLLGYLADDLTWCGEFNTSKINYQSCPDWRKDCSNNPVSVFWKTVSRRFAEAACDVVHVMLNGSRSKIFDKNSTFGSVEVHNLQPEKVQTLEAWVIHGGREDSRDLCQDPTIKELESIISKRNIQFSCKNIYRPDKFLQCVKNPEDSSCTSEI
# Method: A549 human lung epithelial cells were used as enzyme source. The A549 cells express active CD38 enzyme on the cell surface.
# (§1) N6-etheno-NAD (ε-NAD), a NAD analogue previously shown to be a convenient substrate of CD38 enzyme activity (Graeff et al. J. Biol. Chem. 269, pp 30260-30367, […]) was used to measure the activity of human recombinant CD38 and cell surface enzyme activity.
# Type II-like human lung epithelial cells A 549 (ATCC CCL 185) were grown in RPMI 1640 medium supplemented with 10% fetal calf serum, 2mM 1-glutamine and penicillin/streptomycin 1% in a humidified incubator with an atmosphere of 95% air and 5% CO2 at 37 °C. At about 70-80% confluence, cells were detached with trypsin/EDTA solution to form a cell suspension and counted. Cell viability was higher as 95% using trypan blue dye. Cells were plated at a density of 500.000 cells/well (24 well plate), before 24 hours of starting the enzyme assay. The medium was removed and replaced by assay buffer (20 mM HEPES, pH=7.4 containing 140 mM NaCl, 5 mM KCl, 1 mM MgSO4 1 mM CaCl2, 1mM Na2HPO4, 5.5 mM glucose).
# A549 cells (800.000/well, 500 µl) were pre-incubated in the presence and absence of inhibitors for 15 min before the addition of ε-NAD, final substrate concentration was 100 µM. After 60 min, the plate was centrifuged and 100 µl of supernatant was removed and measured fluorimetrically in BMG Polarstar spectrofluorimeter at an emission wavelength of 410 nm and an excitation of 300 nm. The mean difference in the fluorescence between reaction stopped at 0 and 60 min was used an arbitrary unit of NADase activity. The NADase activity in the absence and presence of inhibitors were compared and IC50 values were calculated.
# [2] = target: T2, human recombinant CD38 enzyme (Homo sapiens, UniProt P28907); experiment: Human recombinant enzyme assay (fluorimetric CD38 enzyme assay, ε-NAD substrate); assay type: biochemical; settings: recombinant CD38 100 ng/ml, ε-NAD 100 µM, pH = 6.0, 37°C, reaction time 30 min; read-out: IC50 (nM) ENAD
# T2 construct: purchased R&D Systems H7006
# T2 sequence (P28907 1-300): T1 sequence (P28907 1-300)
# Method: Enzyme assay on human recombinant CD38 enzyme were performed in order to determine the in vitro potency of the newly synthesized compounds. IC50 values were determined for the test compounds and used to explore the structure-activity relationships (SAR).
# as §1
# A fluorimetric CD38 enzyme assay was performed as described by Graeff et al. The reaction was started with 10 µl of N6-etheno-NAD (ε-NAD) substrate, final concentration 100 µM, in a final volume of 0.1 ml buffered with 50 mM HEPES, 0.05% BRIJ, pH = 6.0 containing 100 ng/ml recombinant CD38 (R&D Systems, H7006). Cleavage of ε-NAD, which causes a 10-fold fluorescence enhancement, was continuously followed at 37°C in a BMG Polarstar spectrofluorometer at an emission wavelength of 410 nm and an excitation of 300 nm, reaction time was 30 min. NADase activity was expressed as Δ relative fluorescence/min. The rate of enzyme reactions were compared in the presence and absence of inhibitor molecule, the IC50 values were calculated with Biostat Speed program.
IC50 [1] [nM],IC50 [2] [nM],SMILES
242,55,"O=C1N/C(=C\c2ccncc2)C(=O)N1CC1(O)CCCCC1 [Compound 55, 3-(1-Hydroxy-cyclohexylmethyl)-5-[1-pyridin-4-yl-meth-(Z)-ylidene]-imidazotidine-2,4-dione]"
249,50,"O=C1N/C(=C\c2ccncc2)C(=O)N1C1CC(F)(F)C1 [Compound 53, 3-(3,3-Difluoro-cyclobutyl)-5-[1-pyridin-4-yl-meth-(Z)-ylidene]-imidazolidine-2,4-dione]"
81.8,22,"O=C1N/C(=C\c2ccncc2)C(=O)N1CC1CCCO1 (centres unmarked) [Compound 60, 5-[1-Pyridin-4-yl-meth-(Z)-ylidene]-3-(tetrahydro-furan-2-ylmethyl)-imidazolidine-2,4-dione]"
98.5,35,"O=C1N/C(=C\c2ccncc2)C(=O)N1CC1(O)CCC1 [Compound 59, 3-(1-Hydroxy-cyclobutylmethyl)-5-[1-pyridin-4-yl-meth-(Z)-ylidene]-imidazolidine-2,4-dione]"
